Legend:
[1] = Solid stability evaluation (I/II), XRPD and HPLC; assay type: physicochemical; details: for Observation / Purity (area %): listed as Freeform
Procedure: To evaluate the physical and chemical stability of 1:1 Compound I Tris Salt (Form A) and amorphous free form, samples were stored under the conditions of 60° C. for 1 day and 25° C./60% RH or 40° C./75% RH for 1 week, respectively.
To evaluate the physical and chemical stability of 1:1 Compound II Citrate Salt (Form A), 1:1 Compound II Tris Salt (Form B) and freeform, samples were stored under the conditions of 60° C. for 1 day and 25° C./60% RH or 40° C./75% RH for 1 week, respectively.

[2] = Kinetic solubility test in water and bio-relevant media (SGF, FaSSIF, FeSSIF); assay type: physicochemical; details: for S: solubility: 37° C.; for Purity (%), area percentage of API: for reference only (suspensions); for FC: form change: residual solids by XRPD; for pH: supernatant
Procedure: Weigh 100 mg of sodium chloride and 50 mg of Triton X-100 into a 50-mL volumetric flask. Add appropriate volume of purified water and sonicate until all solids are completely dissolved. Add about 68 μL of 12 M HCl and sufficient purified water closely to the target volume and adjust to pH 1.8. Dilute to volume with purified water, mix well and check the pH with a pH meter.
Weigh 170 mg of sodium phosphate monobasic, 21 mg of sodium hydroxide and 310 mg of sodium chloride, 110 mg of SIF powder into a 50-mL volumetric flask. Add appropriate volume of purified water and sonicate until all solids are completely dissolved. Add sufficient purified water closely to the target volume and adjust to pH 6.5. Dilute to volume with purified water, mix well and check the pH with a pH meter.
Weigh 0.41 mL of glacial acetic acid, 202 mg of sodium hydroxide and 594 mg of sodium chloride, 560 mg of SIF powder into a 50-mL volumetric flask. Add appropriate volume of purified water to dissolve the solids. Then add sufficient purified water closely to the target volume and adjust to pH 5.0. Dilute to volume with purified water, mix well and check the pH with a pH meter.
Kinetic solubility was evaluated in water and three bio-relevant media (SGF, FaSSIF and FeSSIF) for 1/4/24 hours. 3-4 mg of solids were suspended in 3 mL each medium (solid loading: 1 mg/mL, calculated using freeform) to get a suspension, followed by rolling (25 rpm) at 37° C. for 1/4/24 hours. At each time point, ˜1.0 mL of suspension was sampled out for centrifugation (12000 rpm, 2 min) and filtration through 0.45 μm PTFE membrane to obtain supernatant for HPLC and pH tests, the residual solids were analyzed by XRPD.
Kinetic solubility was evaluated for 1:1 Compound II Citrate Salt (Form A), 1:1 Compound II Tris Salt (Form B), and freeform of Compound II in water and three bio-relevant media (SGF, FaSSIF and FeSSIF) for 1/4/24 hours. 3-4 mg of solids were suspended in 3 mL each medium (solid loading:
1 mg/mL, calculated using freeform) to get a suspension, followed by rolling (25 rpm) at 37° C. for 1/4/24 hours. At each time point, ˜1.0 mL of suspension was sampled out for centrifugation (12000 rpm, 2 min) and filtration through 0.45 μm PTFE membrane to obtain supernatant for HPLC and pH tests, the residual solids were analyzed by XRPD. […] The purity results were for reference only since the samples were all suspensions.

[3] = FaSSIF, 1 hour, listed as Freeform
[4] = FaSSIF, 4 hours, listed as Freeform
[5] = FaSSIF, 24 hours, listed as Freeform
[6] = FeSSIF, 1 hour, listed as Freeform
[7] = FeSSIF, 4 hours, listed as Freeform
[8] = FeSSIF, 24 hours, listed as Freeform
[9] = H2O, 1 hour, listed as Freeform
[10] = H2O, 4 hours, listed as Freeform
[11] = H2O, 24 hours, listed as Freeform
[12] = SGF, 1 hour, listed as Freeform
[13] = SGF, 4 hours, listed as Freeform
[14] = SGF, 24 hours, listed as Freeform

## N#Cc1ccc(COc2cccc(C3=CCN(Cc4nc5ccc(C(=O)O)cc5n4C[C@@H]4CCO4)CC3)n2)c(F)c1 [Compound II, (S)-2-((6-((4-cyano-2-fluorobenzyl)oxy)-3′,6′-dihydro-[2,4′-bipyridin]-1′(2′H)-yl)methyl)-1-(oxetan-2-ylmethyl)-1H-benzo[d]imidazole-6-carboxylic acid]
[1]; 25° C./60% RH (open), 1 week
  Form change: No
  Observation: Yellow
  Purity (area %): 94.58 area %
[1]; 40° C./75% RH (open), 1 week
  Form change: No
  Observation: Yellow
  Purity (area %): 92.86 area %
[1]; 60° C. (capped), 1 day
  Form change: No
  Observation: Yellow
  Purity (area %): 88.94 area %
[1]; Initial
  Form change: No
  Observation: Yellow
  Purity (area %): 95.27 area %
[2]; [3]
  S: solubility: 0.02 mg/mL
  Purity (%), area percentage of API: 85.92%
  pH: 6.5
[2]; [4]
  S: solubility: 0.02 mg/mL
  Purity (%), area percentage of API: 72.84%
  FC: form change: No
  pH: 6.5
[2]; [5]
  S: solubility: 0.02 mg/mL
  Purity (%), area percentage of API: 66.76%
  pH: 6.4
[2]; [6]
  S: solubility: 0.03 mg/mL
  Purity (%), area percentage of API: 71.16%
  pH: 5.0
[2]; [7]
  S: solubility: 0.02 mg/mL
  Purity (%), area percentage of API: 47.29%
  pH: 5.1
[2]; [8]
  S: solubility: 0.04 mg/mL
  Purity (%), area percentage of API: 37.65%
  FC: form change: No
  pH: 5.0
[2]; [9]
  S: solubility: 0.03 mg/mL
  Purity (%), area percentage of API: 93.84%
  pH: 6.6
[2]; [10]
  S: solubility: 0.03 mg/mL
  Purity (%), area percentage of API: 86.44%
  FC: form change: No
  pH: 7.0
[2]; [11]
  S: solubility: 0.04 mg/mL
  Purity (%), area percentage of API: 89.76%
  FC: form change: No
  pH: 7.3
[2]; [12]
  S: solubility: 0.2 mg/mL
  Purity (%), area percentage of API: 94.17%
  FC: form change: No
[2]; [13]
  S: solubility: 0.2 mg/mL
  Purity (%), area percentage of API: 81.32%
  pH: 1.9
[2]; [14]
  S: solubility: 0.1 mg/mL
  Purity (%), area percentage of API: 76.04%
  pH: 1.8
[2]; FaSSIF, 1 hour
  FC: form change: No
[2]; FaSSIF, 24 hours
  FC: form change: Yes
[2]; FeSSIF, 1 hour
  FC: form change: No
[2]; FeSSIF, 4 hours
  FC: form change: Yes
[2]; H2O, 1 hour
  FC: form change: No
[2]; SGF, 4 hours
  FC: form change: Yes
[2]; SGF, 24 hours
  FC: form change: Yes
[2]; SGF, 1 hour
  pH: 1.9
